Experimental data: ChEMBL document CHEMBL4330101, “Identification of BR101549 as a lead candidate of non-TZD PPARγ agonist for the treatment of type 2 diabetes: Proof-of-concept evaluation and SAR” (Bioorg Med Chem Lett, 2019)

test system: not listed separately; experiment: Toxicity in db/db mouse assessed as body weight at 20 mg/kg, po administered once daily for 13 days (reference value: 33.5 g); assay type: organism-based; settings: in vivo, 312 h

SMILES	Activity
CCc1ccc(CCOc2ccc(CC3SC(=O)NC3=O)cc2)nc1 (stereo not drawn) [PIOGLITAZONE]	32.3 g

test system: not listed separately; experiment: Stability in rat liver microsomes assessed as parent compound remaining after 30 mins; assay type: ADME, Microsome; settings: read-out: Stability

SMILES	remaining at 0.5 h
[2H]C([2H])(C(=O)OCC)c1c(C)nc(CCCC)n(Cc2ccc(-c3ccccc3-c3noc(=O)[nH]3)cc2)c1=O	87.3%
CCCCc1nc(C(C)C)c(C(C)C(=O)OCC)c(=O)n1Cc1ccc(-c2ccccc2-c2noc(=O)[nH]2)cc1 (stereo not drawn)	19.2%
CCCCc1nc(C)c(CC(=O)OCC)c(=O)n1Cc1ccc(-c2ccccc2-c2noc(=O)[nH]2)cc1	14.3%

test system: not listed separately; experiment: Stability in dog liver microsomes assessed as parent compound remaining after 30 mins; assay type: ADME, Canis lupus familiaris, Microsome; settings: read-out: Stability

SMILES	remaining at 0.5 h
[2H]C([2H])(C(=O)OCC)c1c(C)nc(CCCC)n(Cc2ccc(-c3ccccc3-c3noc(=O)[nH]3)cc2)c1=O	86.8%
CCCCc1nc(C(C)C)c(C(C)C(=O)OCC)c(=O)n1Cc1ccc(-c2ccccc2-c2noc(=O)[nH]2)cc1 (stereo not drawn)	43.8%
CCCCc1nc(C)c(CC(=O)OCC)c(=O)n1Cc1ccc(-c2ccccc2-c2noc(=O)[nH]2)cc1	50.9%

test system: not listed separately; experiment: Drug metabolism in human liver S9 fraction assessed as acylglucuronide formation; assay type: ADME, subcellular; settings: not given

SMILES	Drug metabolism
CCCCc1nc(C(C)C)c(CC(=O)O)c(=O)n1Cc1ccc(-c2ccccc2-c2noc(=O)[nH]2)cc1	Metabolite_Detected

molecular target: T1, Type-1 angiotensin II receptor (Homo sapiens, UniProt P30556); experiment: Antagonist activity at type-1 angiotensin 2 receptor (unknown origin) by calcium mobilizing assay; assay type: functional; settings: not given
T1 sequence (P30556 whole entry): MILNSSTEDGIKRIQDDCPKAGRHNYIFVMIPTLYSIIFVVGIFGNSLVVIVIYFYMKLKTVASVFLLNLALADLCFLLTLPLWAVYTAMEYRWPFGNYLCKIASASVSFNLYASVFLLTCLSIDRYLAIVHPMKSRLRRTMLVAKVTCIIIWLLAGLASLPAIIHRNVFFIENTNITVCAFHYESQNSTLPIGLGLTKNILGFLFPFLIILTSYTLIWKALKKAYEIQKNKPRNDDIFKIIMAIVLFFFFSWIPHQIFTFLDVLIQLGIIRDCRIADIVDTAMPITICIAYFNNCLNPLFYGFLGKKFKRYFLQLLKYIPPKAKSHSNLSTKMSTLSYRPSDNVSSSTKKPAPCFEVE

SMILES	IC50
CCCCc1nc(C(C)C)c(CC(=S)N2CCCC2)c(=O)n1Cc1ccc(-c2ccccc2-c2noc(=O)[nH]2)cc1	0.0022 µM

test system: not listed separately; experiment: Drug level in rat liver S9 fraction treated with BR101549; assay type: ADME, subcellular; settings: not given

SMILES	Drug metabolism
CCCCc1nc(C(C)C)c(CC(=O)O[C@@H]2O[C@H](C(=O)O)[C@@H](O)[C@H](O)[C@H]2O)c(=O)n1Cc1ccc(-c2ccccc2-c2noc(=O)[nH]2)cc1	Metabolite_Notdetected

molecular target: T2, Peroxisome proliferator-activated receptor gamma (Homo sapiens) (UniProt P37231); experiment: Agonist activity at human PPARgamma at 1 uM relative to pioglitazone; settings: not given
T2 sequence (whole entry): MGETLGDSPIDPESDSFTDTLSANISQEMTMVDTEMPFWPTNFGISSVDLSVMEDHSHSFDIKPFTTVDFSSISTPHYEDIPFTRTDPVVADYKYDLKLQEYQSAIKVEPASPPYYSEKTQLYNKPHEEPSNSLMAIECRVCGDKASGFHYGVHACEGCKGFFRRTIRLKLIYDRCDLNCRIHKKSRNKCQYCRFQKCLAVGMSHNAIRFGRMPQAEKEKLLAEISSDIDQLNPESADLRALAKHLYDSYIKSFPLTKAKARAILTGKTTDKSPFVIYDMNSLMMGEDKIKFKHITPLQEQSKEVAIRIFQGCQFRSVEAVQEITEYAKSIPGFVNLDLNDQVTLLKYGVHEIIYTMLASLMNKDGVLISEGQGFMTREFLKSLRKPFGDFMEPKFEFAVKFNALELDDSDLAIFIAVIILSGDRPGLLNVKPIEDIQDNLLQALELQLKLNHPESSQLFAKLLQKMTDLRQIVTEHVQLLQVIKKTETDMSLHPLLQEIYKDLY

SMILES	max activation
CCCCc1nc(C(C)C)c(CC(=O)O)c(=O)n1Cc1ccc(-c2ccccc2-c2noc(=O)[nH]2)cc1	2%
CCCCc1nc(C(C)C)c(CC(=S)N2CCCC2)c(=O)n1Cc1ccc(-c2ccccc2-c2noc(=O)[nH]2)cc1	66%

test system: not listed separately; experiment: Stability in human liver microsomes assessed as parent compound remaining after 30 mins; assay type: ADME, Microsome; settings: read-out: Stability

SMILES	remaining at 0.5 h
[2H]C([2H])(C(=O)OCC)c1c(C)nc(CCCC)n(Cc2ccc(-c3ccccc3-c3noc(=O)[nH]3)cc2)c1=O	46.5%
CCCCc1nc(C(C)C)c(C(C)C(=O)OCC)c(=O)n1Cc1ccc(-c2ccccc2-c2noc(=O)[nH]2)cc1 (stereo not drawn)	11%
CCCCc1nc(C)c(CC(=O)OCC)c(=O)n1Cc1ccc(-c2ccccc2-c2noc(=O)[nH]2)cc1	46.6%
CCCCc1nc(C(C)C)c(CC(=O)O)c(=O)n1Cc1ccc(-c2ccccc2-c2noc(=O)[nH]2)cc1	86.8%

test system: not listed separately; experiment: Drug level in mouse liver S9 fraction treated with 2-(2-butyl-4-isopropyl-6-oxo-1-((2'-(5-oxo-4,5-dihydro-1,2,4-oxadiazol-3-yl)biphenyl-4-yl)methyl)-1,6-dihydropyrimidin-5-yl)acetic acid; assay type: ADME, subcellular; settings: not given

SMILES	Drug metabolism
CCCCc1nc(C(C)C)c(CC(=O)O[C@@H]2O[C@H](C(=O)O)[C@@H](O)[C@H](O)[C@H]2O)c(=O)n1Cc1ccc(-c2ccccc2-c2noc(=O)[nH]2)cc1	Metabolite_Detected

test system: not listed separately; experiment: Drug level in human liver S9 fraction treated with 2-(2-butyl-4-isopropyl-6-oxo-1-((2'-(5-oxo-4,5-dihydro-1,2,4-oxadiazol-3-yl)biphenyl-4-yl)methyl)-1,6-dihydropyrimidin-5-yl)acetic acid; assay type: ADME, subcellular; settings: not given

SMILES	Drug metabolism
CCCCc1nc(C(C)C)c(CC(=O)O[C@@H]2O[C@H](C(=O)O)[C@@H](O)[C@H](O)[C@H]2O)c(=O)n1Cc1ccc(-c2ccccc2-c2noc(=O)[nH]2)cc1	Metabolite_Detected

test system: not listed separately; experiment: Drug level in human liver S9 fraction treated with BR101549; assay type: ADME, subcellular; settings: not given

SMILES	Drug metabolism
CCCCc1nc(C(C)C)c(CC(=O)O[C@@H]2O[C@H](C(=O)O)[C@@H](O)[C@H](O)[C@H]2O)c(=O)n1Cc1ccc(-c2ccccc2-c2noc(=O)[nH]2)cc1	Metabolite_Notdetected

test system: not listed separately; experiment: Drug metabolism in mouse liver S9 fraction assessed as acylglucuronide formation; assay type: ADME, subcellular; settings: not given

SMILES	Drug metabolism
CCCCc1nc(C(C)C)c(CC(=O)O)c(=O)n1Cc1ccc(-c2ccccc2-c2noc(=O)[nH]2)cc1	Metabolite_Detected

test system: not listed separately; experiment: Drug level in rat liver S9 fraction treated with 2-(2-butyl-4-isopropyl-6-oxo-1-((2'-(5-oxo-4,5-dihydro-1,2,4-oxadiazol-3-yl)biphenyl-4-yl)methyl)-1,6-dihydropyrimidin-5-yl)acetic acid; assay type: ADME, subcellular; settings: not given

SMILES	Drug metabolism
CCCCc1nc(C(C)C)c(CC(=O)O[C@@H]2O[C@H](C(=O)O)[C@@H](O)[C@H](O)[C@H]2O)c(=O)n1Cc1ccc(-c2ccccc2-c2noc(=O)[nH]2)cc1	Metabolite_Detected

molecular target: T3, Peroxisome proliferator-activated receptor gamma (Homo sapiens, UniProt P37231); experiment: Agonist activity at human PPARgamma; settings: not given
T3 sequence (P37231 whole entry): T2 sequence (whole entry)

SMILES	EC50
CCCCc1nc(C(C)C)c(CC(=O)O)c(=O)n1Cc1ccc(-c2ccccc2-c2noc(=O)[nH]2)cc1	10.3 µM
CCCCc1nc(C(C)C)c(CC(=S)N2CCCC2)c(=O)n1Cc1ccc(-c2ccccc2-c2noc(=O)[nH]2)cc1	3.1 µM

test system: Mus musculus; experiment: Antidiabetic activity in db/db mouse assessed as random blood glucose level at 20 mg/kg, po administered once daily for 13 days measured post last dose (reference value: 530 mg/dl); assay type: functional; settings: not given

SMILES	Activity
CCc1ccc(CCOc2ccc(CC3SC(=O)NC3=O)cc2)nc1 (stereo not drawn) [PIOGLITAZONE]	213 mg/dL

test system: not listed separately; experiment: Stability in mouse liver microsomes assessed as parent compound remaining after 30 mins; assay type: ADME, Microsome; settings: read-out: Stability

SMILES	remaining at 0.5 h
[2H]C([2H])(C(=O)OCC)c1c(C)nc(CCCC)n(Cc2ccc(-c3ccccc3-c3noc(=O)[nH]3)cc2)c1=O	78.4%
CCCCc1nc(C(C)C)c(C(C)C(=O)OCC)c(=O)n1Cc1ccc(-c2ccccc2-c2noc(=O)[nH]2)cc1 (stereo not drawn)	28%
CCCCc1nc(C)c(CC(=O)OCC)c(=O)n1Cc1ccc(-c2ccccc2-c2noc(=O)[nH]2)cc1	12.9%
CCCCc1nc(C(C)C)c(CC(=O)O)c(=O)n1Cc1ccc(-c2ccccc2-c2noc(=O)[nH]2)cc1	100%

test system: not listed separately; experiment: Drug level in mouse liver S9 fraction treated with BR101549; assay type: ADME, subcellular; settings: not given

SMILES	Drug metabolism
CCCCc1nc(C(C)C)c(CC(=O)O[C@@H]2O[C@H](C(=O)O)[C@@H](O)[C@H](O)[C@H]2O)c(=O)n1Cc1ccc(-c2ccccc2-c2noc(=O)[nH]2)cc1	Metabolite_Notdetected

molecular target: T2, Peroxisome proliferator-activated receptor gamma (Homo sapiens); experiment: Agonist activity at human PPARgamma at 1 uM relative to telmisartan; settings: not given

SMILES	fold change (FC)
CCCCc1nc(C(C)C)c(C(C)C(=O)OCC)c(=O)n1Cc1ccc(-c2ccccc2-c2noc(=O)[nH]2)cc1 (stereo not drawn)	1.3
CCCCc1nc(C)c(CC(=O)OCC)c(=O)n1Cc1ccc(-c2ccccc2-c2noc(=O)[nH]2)cc1	0.93

same assay, conditions: tested as the 2H-labelled form

SMILES	fold change (FC)
CCCCc1nc(C)c(CC(=O)OCC)c(=O)n1Cc1ccc(-c2ccccc2-c2noc(=O)[nH]2)cc1	0.82

test system: not listed separately; experiment: Drug metabolism in rat liver S9 fraction assessed as acylglucuronide formation; assay type: ADME, subcellular; settings: not given

SMILES	Drug metabolism
CCCCc1nc(C(C)C)c(CC(=O)O)c(=O)n1Cc1ccc(-c2ccccc2-c2noc(=O)[nH]2)cc1	Metabolite_Detected
